Assay results reported in paper PMC10075506, “Synthesis and biological evaluation of flavonoid-based IP6K2 inhibitors” (Journal of Enzyme Inhibition and Medicinal Chemistry, 2023).
Where two headings read alike, the source gives them in different places.

Assays:
[1] = in vitro; details: PAMPA
Description: Supporting Information Table 1.
artificial membrane permeability assay (PAMPA) as described previously (reference). The apparent permeability
(ranitidine, nadolol, hydrochlorothiazide).
Data are mean ± S.D. (n=3).
Reference: Oh, M.H., Lee, H.J., Jo, S.H., et al. Development of Cassette PAMPA for Permeability Screening. Biol Pharm

[2] = target: T1, recombinant human IP6K2 (Homo sapiens, UniProt Q9UHH9); assay: ADP-Glo kinase assay, IP6K2; format: biochemical; details: for IP6K2-inhibitory activity in screening: at concentrations of 10 and 50 µM, result in words; for IC50: IP6K2 80 nM, IP6 10 μM, ATP 10 μM, read-out: IP6K2 IC50; for inhibitory activity against IP6K2 (in words): IC50 experiment up to 100 µM
T1 construct: made in house; host or cells: Sf9 insect cells (baculovirus, pFASTBAC1)
T1 sequence (Q9UHH9 1-426): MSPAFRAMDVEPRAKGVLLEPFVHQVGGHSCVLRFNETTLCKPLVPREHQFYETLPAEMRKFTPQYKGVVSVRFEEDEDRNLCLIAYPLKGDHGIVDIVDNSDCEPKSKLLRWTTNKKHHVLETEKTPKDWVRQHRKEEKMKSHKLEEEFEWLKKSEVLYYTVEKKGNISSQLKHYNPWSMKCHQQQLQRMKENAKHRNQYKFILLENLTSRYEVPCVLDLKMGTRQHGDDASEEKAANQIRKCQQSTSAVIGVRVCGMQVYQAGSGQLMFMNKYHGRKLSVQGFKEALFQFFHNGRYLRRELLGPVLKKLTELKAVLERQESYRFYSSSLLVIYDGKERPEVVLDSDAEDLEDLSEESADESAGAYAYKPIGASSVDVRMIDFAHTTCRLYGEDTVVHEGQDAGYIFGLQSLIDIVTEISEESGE
Description: Inhibition activity of the synthesised compounds against IP6K2 was assessed using ADP-Glo™ Kinase Assay (Promega). Kinase reaction mixtures were first shaking-incubated with individual drugs (diluted in DMSO) for pre-incubation at RT for 15 min, and then ATP was added (final 10 µM) to initiate the reaction. 20 ng of recombinant human IP6K2 protein was used per 15 µL of IP6K2 reaction mixture (50 mM Tris-HCl, pH 6.8, 10 mM MgCl2, 2.5 mM DTT, 0.02% Triton X-100, 10 µM IP6). […] Each detection set was prepared on 96-well (25 µL kinase reaction) as duplicates. Resulting enzyme activity was calculated as following; Activity (%) = ([ADPexperimental]/[ADPDMSO])×100. For IC50 estimation of compounds, kinase assay was prepared on 384-well plates (20 ng of recombinant human IP6K2 protein was used per 5 µL kinase reaction mixture) as duplicates. The final concentrations for IP6K2, IP6, and ATP were 80 nM, 10 μM, and 10 μM, respectively. […] IP6K1 and IP6K3 assays were performed by Liao et al.’s conditions.[25] The final concentrations for IP6K1, IP6, and ATP were 60 nM, 100 μM, and 1 mM, respectively. […] All statistical analyses including IC50 estimation was performed using Prism 7 or Prism 9 (Graphpad Software).
Full-length human IP6K1, IP6K2, or IP6K3 cDNA was subcloned into pFASTBAC1 plasmid (Gibco) with an N-terminal FLAG epitope sequence, and baculovirus was generated according to the manufacturer’s instructions. Sf9 insect cells were infected with baculovirus and incubated for 72 h. The cells were resuspended in lysis buffer [20 mM Tris–HCl (pH 7.9), 500 mM NaCl, 4 mM MgCl2, 0.4 mM EDTA, 2 mM DTT, 20% glycerol, 1 mM PMSF, and protease inhibitor cocktail (Roche)] and then disrupted with a Dounce homogeniser (pestle A, 3 series of 10 strokes with 10 min interval).

[3] = Table 2, duplicates, 0.017 to 100 µM, mean ± SD

Compound | melting point [°C] | IC50 [2, 3] [µM] | other results
O=c1cc(-c2ccc(O)cc2)oc2cc(F)ccc12 | 310 to 312 | – | –
O=c1cc(-c2ccc(O)cc2)oc2ccc(F)cc12 | 292 to 294 | – | –
O=c1cc(-c2ccc(O)cc2)oc2cccc(F)c12 | 272 to 274 | – | –
O=c1cc(-c2ccc(O)cc2)oc2cc(F)c(F)cc12 | 302 to 304 | – | –
O=C(O)c1cccc(-c2cc(=O)c3cc(F)c(F)cc3o2)c1 | 272 to 274 | – | –
O=c1cc(-c2ccc(O)cc2)oc2cc(F)cc(F)c12 | 228 to 230 | – | –
O=c1cc(-c2ccccc2)oc2cc(F)ccc12 | 96 to 98 | – | –
COc1ccc(-c2cc(=O)c3ccc(F)cc3o2)cc1 | 228 to 230 | – | –
COc1ccc(-c2cc(=O)c3cc(F)ccc3o2)cc1 | 160 to 162 | – | –
O=c1cc(-c2ccccc2)oc2cccc(F)c12 | 144 to 146 | – | –
COc1ccc(-c2cc(=O)c3c(F)cccc3o2)cc1 | 178 to 180 | – | –
COc1ccc(-c2cc(=O)c3cc(F)c(F)cc3o2)cc1 | 200 to 202 | – | –
COc1ccc(-c2cc(=O)c3c(F)cc(F)cc3o2)cc1 | 256 to 258 | – | –
O=C(N[C@H](CO)[C@H](O)c1ccc([N+](=O)[O-])cc1)C(Cl)Cl [Chloramphenicol, chloramphenicol] | – | – | Papp [1]: 4.67 ± 0.063 ×10⁻⁶ cm/s; Permeability class [1]: High
O=c1cc(-c2ccccc2)oc2cc(O)c(O)cc12 [Compound 2a] | – | – | IP6K2-inhibitory activity in screening [2]: inhibit IP6K2 more strongly than the corresponding compounds
O=c1cc(-c2ccc(O)cc2)oc2cc(O)c(O)cc12 [Compound 2c] | – | – | IP6K2-inhibitory activity in screening [2]: inhibit IP6K2 more strongly than the corresponding compounds
O=c1cc(-c2cccnc2)oc2cc(O)c(O)cc12 [Compound 2e] | – | – | IP6K2-inhibitory activity in screening [2]: inhibit IP6K2 more strongly than the corresponding compounds
O=C(O)c1ccc(-c2cc(=O)c3cc(O)c(O)cc3o2)cc1 [Compound 16a, 4–(6,7-Dihydroxy-4-oxo-4H-chromen-2-yl)benzoic acid] | – | – | IC50 ([2]; Table 1): 9.07 µM
O=C(O)c1cccc(-c2cc(=O)c3cc(O)c(O)cc3o2)c1 [Compound 16b, 3–(6,7-Dihydroxy-4-oxo-4H-chromen-2-yl)benzoic acid] | 416 to 418 | – | IC50 ([2]; Table 1): 1.67 µM
O=C(O)c1ccc(-c2cc(=O)c3c(O)cc(O)cc3o2)cc1 [Compound 16c, 4–(5,7-Dihydroxy-4-oxo-4H-chromen-2-yl)benzoic acid] | 337 to 339 | – | IC50 ([2]; Table 1): 41.9 µM
O=C(O)c1cccc(-c2cc(=O)c3c(O)cc(O)cc3o2)c1 [Compound 16d, 3–(5,7-Dihydroxy-4-oxo-4H-chromen-2-yl)benzoic acid] | – | – | IC50 ([2]; Table 1): 2.89 µM
O=c1c(O)c(-c2ccc(O)c(O)c2)oc2cc(O)c(O)cc12 [Compound 20a, 2–(3,4-Dihydroxyphenyl)-3,6,7-trihydroxy-4H-chromen-4-one] | – | 1.77 ± 0.15 | –
O=c1c(O)c(-c2ccccc2)oc2cc(O)c(O)cc12 [Compound 20b, 3,6,7-Trihydroxy-2-phenyl-4H-chromen-4-one] | – | 14.5 ± 0.9 | –

Compound | melting point [°C] | IC50 [2, 3] [µM] | other results
Cc1ccc(-c2oc3cc(O)c(O)cc3c(=O)c2O)cc1 [Compound 20c, 3,6,7-Trihydroxy-2-(p-tolyl)-4H-chromen-4-one] | – | > 100 | –
Cc1cccc(-c2oc3cc(O)c(O)cc3c(=O)c2O)c1 [Compound 20d, 3,6,7-Trihydroxy-2-(m-tolyl)-4H-chromen-4-one] | – | 38.8 ± 3.8 | –
Cc1ccc(-c2oc3cc(O)c(O)cc3c(=O)c2O)cc1C [Compound 20e, 2–(3,4-Dimethylphenyl)-3,6,7-trihydroxy-4H-chromen-4-one] | – | > 100 | inhibitory activity against IP6K2 (in words) [2]: completely lost their inhibitory activity against IP6K2
O=c1c(O)c(-c2ccc(F)cc2)oc2cc(O)c(O)cc12 [Compound 20f, 2–(4-Fluorophenyl)-3,6,7-trihydroxy-4H-chromen-4-one] | – | 61.9 ± 3.8 | –
O=c1c(O)c(-c2cccc(F)c2)oc2cc(O)c(O)cc12 [Compound 20g, 2–(3-Fluorophenyl)-3,6,7-trihydroxy-4H-chromen-4-one] | – | 38.7 ± 2.9 | –
O=c1c(O)c(-c2ccc(F)c(F)c2)oc2cc(O)c(O)cc12 [Compound 20h, 2–(3,4-Difluorophenyl)-3,6,7-trihydroxy-4H-chromen-4-one] | – | > 100 | inhibitory activity against IP6K2 (in words) [2]: completely lost their inhibitory activity against IP6K2
O=c1c(O)c(-c2ccc(C(F)(F)F)cc2)oc2cc(O)c(O)cc12 [Compound 20i, 3,6,7-Trihydroxy-2–(4-(trifluoromethyl)phenyl)-4H-chromen-4-one] | – | > 100 | –
O=c1c(O)c(-c2cccc(C(F)(F)F)c2)oc2cc(O)c(O)cc12 [Compound 20j, 3,6,7-Trihydroxy-2–(3-(trifluoromethyl)phenyl)-4H-chromen-4-one] | – | > 100 | –
O=c1c(O)c(-c2ccc(Cl)cc2)oc2cc(O)c(O)cc12 [Compound 20k, 2–(4-Chlorophenyl)-3,6,7-trihydroxy-4H-chromen-4-one] | – | 81.5 ± 3.3 | –
O=c1c(O)c(-c2cccc(Cl)c2)oc2cc(O)c(O)cc12 [Compound 20l, 2–(3-Chlorophenyl)-3,6,7-trihydroxy-4H-chromen-4-one] | – | 73.2 ± 3.2 | –
O=c1c(O)c(-c2ccc(-c3ccccc3)cc2)oc2cc(O)c(O)cc12 [Compound 20m, 2-([1,1'-Biphenyl]-4-yl)-3,6,7-trihydroxy-4H-chromen-4-one] | – | > 100 | –
O=c1c(O)c(-c2ccc(Oc3ccccc3)cc2)oc2cc(O)c(O)cc12 [Compound 20n, 3,6,7-Trihydroxy-2–(4-phenoxyphenyl)-4H-chromen-4-one] | – | > 100 | –
O=c1c(O)c(-c2cccc(Oc3ccccc3)c2)oc2cc(O)c(O)cc12 [Compound 20o, 3,6,7-Trihydroxy-2–(3-phenoxyphenyl)-4H-chromen-4-one] | – | 73.3 ± 12.7 | –
O=c1c(O)c(-c2ccc(O)cc2)oc2cc(O)c(O)cc12 [Compound 20p, 3,6,7-Trihydroxy-2–(4-hydroxyphenyl)-4H-chromen-4-one] | – | 22.6 ± 0.3 | –
O=c1c(O)c(-c2cccc(O)c2)oc2cc(O)c(O)cc12 [Compound 20q, 3,6,7-Trihydroxy-2–(3-hydroxyphenyl)-4H-chromen-4-one] | – | 2.96 ± 0.19 | –
O=C(O)c1ccc(-c2oc3cc(O)c(O)cc3c(=O)c2O)cc1 [Compound 20r, 4–(3,6,7-Trihydroxy-4-oxo-4H-chromen-2-yl)benzoic acid] | – | 3.93 ± 0.03 | –
O=c1c(O)c(-c2ccc3ccccc3c2)oc2cc(O)c(O)cc12 [Compound 23a, 3,6,7-Trihydroxy-2-(naphthalen-2-yl)-4H-chromen-4-one] | – | 97.8 ± 1.7 | –
Cn1cc(-c2oc3cc(O)c(O)cc3c(=O)c2O)cn1 [Compound 23b, 3,6,7-Trihydroxy-2–(1-methyl-1H-pyrazol-4-yl)-4H-chromen-4-one] | – | 1.79 ± 0.4 | fold more potent IP6K2 inhibition than quercetin ([2]; IC50 compared with quercetin): 2 fold
O=c1c(O)c(-c2cccs2)oc2cc(O)c(O)cc12 [Compound 23c, 3,6,7-Trihydroxy-2-(thiophen-2-yl)-4H-chromen-4-one] | – | 73.3 ± 12.8 | –
NS(=O)(=O)c1cc2c(cc1Cl)NCNS2(=O)=O [Hydrochlorothiazide, hydrochlorothiazide] | – | – | Papp [1]: < 0.18 ×10⁻⁶ cm/s; Permeability class [1]: Low
COCCc1ccc(OCC(O)CNC(C)C)cc1 (centres unmarked) [Metoprolol, metoprolol] | – | – | Papp [1]: 3.45 ± 0.158 ×10⁻⁶ cm/s; Permeability class [1]: High
CC(C)(C)NCC(O)COc1cccc2c1CC(O)C(O)C2 (centres unmarked) [Nadolol, nadolol] | – | – | Papp [1]: 0.089 ± 0.007 ×10⁻⁶ cm/s; Permeability class [1]: Low
CNC(=C[N+](=O)[O-])NCCSCc1ccc(CN(C)C)o1 [Ranitidine, ranitidine] | – | – | Papp [1]: < 0.18 ×10⁻⁶ cm/s; Permeability class [1]: Low
